What was measured:
[1] = Thermal stability measurement (TG/DTA weight reduction temperature); settings: for Weight reduction temperature 5% / Weight reduction temperature 10% / Weight reduction temperature 20%: TG/DTA, air 200 mL/min, 10° C./min, 30° C. to 600° C.; for 5%, 10%, 20% weight reduction temperatures (thermal stability) higher than perfluoropolyether Z-DOL (Comparative Example 11C) by: difference to Z-DOL; for 5%, 10%, 20% weight reduction temperatures (thermal stability) higher than Z-TETRAOL (Comparative Example 12C) by: difference to Z-TETRAOL; for Thermal stability improved compared with perfluoropolyether Z-DOL or Z-TETRAOL by: difference to Z-DOL or Z-TETRAOL
[2] = Solubility test of ionic liquid in fluorine-based solvent VERTREL XF; settings: for Solubility to fluorine-based solvent: VERTREL XF [CF3(CHF)2CF2CF3], 25° C., ultrasonic 5 minutes, left 1 day, visual; for Dissolved or not in fluorine-based solvent: VERTREL XF
Protocol: A solubility test was performed on the ionic liquid synthesized each of Examples and each of Comparative Examples using VERTREL XF [CF3(CHF)2CF2CF3] available from Du Pont-Mitsui Fluorochemicals Company, Ltd. as a fluorine-based solvent.
The ionic liquid was added to the predetermined mass of VERTREL XF.
Specifically, 0.5 parts by mass or 0.1 parts by mass of each ionic liquid was added to 100 parts by mass of VERTREL XF (25° C.).
Note that, a case where the mixture was visually observed to be transparent, the ionic liquid was judged as being dissolved. A case where the mixture was not transparent or insoluble matter was observed, the ionic liquid was judged as not being dissolved (insoluble).
The ionic liquid was dissolved when 0.5 parts by mass of the ionic liquid was added.
The ionic liquid was not dissolved when 0.5 parts by mass of the ionic liquid was added, but the ionic liquid was dissolved when 0.1 parts by mass of the ionic liquid was added.
The ionic liquid was not dissolved both when 0.5 parts by mass of the ionic liquid was added and when 0.1 parts by mass of the ionic liquid was added.

Compound	Weight reduction temperature 5% [1]	Weight reduction temperature 10% [1]	Weight reduction temperature 20% [1]	Solubility to fluorine-based solvent [2]	also measured
CCCCCCCCCCCCCCCCCCn1cc[n+](CCC[n+]2ccn(CCCCCCCCCCCCCCCCCC)c2)c1.O=S(=O)([N-]S(=O)(=O)C(F)(F)C(F)(F)C(F)(F)C(F)(F)F)C(F)(F)C(F)(F)C(F)(F)C(F)(F)F.O=S(=O)([N-]S(=O)(=O)C(F)(F)C(F)(F)C(F)(F)C(F)(F)F)C(F)(F)C(F)(F)C(F)(F)C(F)(F)F	352.3 °C	381.9 °C	401.4 °C		
CCCCCCCCCCCCCCCCCCn1cc[n+](CCCCC[n+]2ccn(CCCCCCCCCCCCCCCCCC)c2)c1.O=S(=O)([N-]S(=O)(=O)C(F)(F)C(F)(F)C(F)(F)C(F)(F)F)C(F)(F)C(F)(F)C(F)(F)C(F)(F)F.O=S(=O)([N-]S(=O)(=O)C(F)(F)C(F)(F)C(F)(F)C(F)(F)F)C(F)(F)C(F)(F)C(F)(F)C(F)(F)F	360.1 °C	384.4 °C	402.0 °C		5%, 10%, 20% weight reduction temperatures (thermal stability) higher than perfluoropolyether Z-DOL (Comparative Example 11C) by [1]: ≥ 170 °C; 5%, 10%, 20% weight reduction temperatures (thermal stability) higher than Z-TETRAOL (Comparative Example 12C) by [1]: ≥ 120 °C
CCCCCCCCCCCCCCCCCCn1cc[n+](CCCCCCCCC[n+]2ccn(CCCCCCCCCCCCCCCCCC)c2)c1.O=S(=O)([N-]S(=O)(=O)C(F)(F)C(F)(F)C(F)(F)C(F)(F)F)C(F)(F)C(F)(F)C(F)(F)C(F)(F)F.O=S(=O)([N-]S(=O)(=O)C(F)(F)C(F)(F)C(F)(F)C(F)(F)F)C(F)(F)C(F)(F)C(F)(F)C(F)(F)F					5%, 10%, 20% weight reduction temperatures (thermal stability) higher than perfluoropolyether Z-DOL (Comparative Example 11C) by [1]: ≥ 170 °C; 5%, 10%, 20% weight reduction temperatures (thermal stability) higher than Z-TETRAOL (Comparative Example 12C) by [1]: ≥ 110 °C
C[n+]1ccn(CCC(F)(F)C(F)(F)C(F)(F)C(F)(F)C(F)(F)C(F)(F)C(F)(F)C(F)(F)F)c1.O=S(=O)([N-]S(=O)(=O)C(F)(F)C(F)(F)C(F)(F)C(F)(F)F)C(F)(F)C(F)(F)C(F)(F)C(F)(F)F					5%, 10%, 20% weight reduction temperatures (thermal stability) higher than perfluoropolyether Z-DOL (Comparative Example 11C) by [1]: ≥ 150 °C; 5%, 10%, 20% weight reduction temperatures (thermal stability) higher than Z-TETRAOL (Comparative Example 12C) by [1]: ≥ 90 °C
CCCCCCCCCCCCCCCCCC[n+]1ccn(CCC(F)(F)C(F)(F)C(F)(F)C(F)(F)C(F)(F)C(F)(F)C(F)(F)C(F)(F)F)c1.O=S(=O)([N-]S(=O)(=O)C(F)(F)C(F)(F)C(F)(F)C(F)(F)F)C(F)(F)C(F)(F)C(F)(F)C(F)(F)F					5%, 10%, 20% weight reduction temperatures (thermal stability) higher than perfluoropolyether Z-DOL (Comparative Example 11C) by [1]: ≥ 150 °C; 5%, 10%, 20% weight reduction temperatures (thermal stability) higher than Z-TETRAOL (Comparative Example 12C) by [1]: ≥ 90 °C
CCCCCCCCCCCCCCCCCC[n+]1ccn(CCCC)c1.O=S(=O)([N-]S(=O)(=O)C(F)(F)C(F)(F)C(F)(F)C(F)(F)F)C(F)(F)C(F)(F)C(F)(F)C(F)(F)F					Thermal stability compared to perfluoropolyether Z-DOL or Z-TETRAOL [1]: high
CCCCCCCCCCCCCCCCCCC1CCCCN2CCCN=C12.O=S(=O)(NS(=O)(=O)C(F)(F)C(F)(F)C(F)(F)C(F)(F)F)C(F)(F)C(F)(F)C(F)(F)C(F)(F)F	352.9 °C	378.2 °C	396.7 °C		5%, 10%, 20% weight reduction temperatures (thermal stability) higher than perfluoropolyether Z-DOL (Comparative Example 11C) by [1]: ≥ 100 °C; 5%, 10%, 20% weight reduction temperatures (thermal stability) higher than Z-TETRAOL (Comparative Example 12C) by [1]: ≥ 50 °C
CCCCCCCCCCCCCCCCCC[N+]1(CCCC)CCCC1.O=S(=O)([N-]S(=O)(=O)C(F)(F)C(F)(F)C(F)(F)C(F)(F)F)C(F)(F)C(F)(F)C(F)(F)C(F)(F)F					Thermal stability improved compared with perfluoropolyether Z-DOL or Z-TETRAOL by [1]: ≥ 90 °C
CCCCCCCCCCCCCCCCCCN1CCCC1.O=S(=O)(NS(=O)(=O)C(F)(F)C(F)(F)C(F)(F)C(F)(F)F)C(F)(F)C(F)(F)C(F)(F)C(F)(F)F					Thermal stability improved compared with perfluoropolyether Z-DOL or Z-TETRAOL by [1]: ≥ 70 °C
CCCCCCCCCCCCCCCCCCC1CCCCN2CCCN=C12.O=S1(=O)NS(=O)(=O)C(F)(F)C(F)(F)C1(F)F (stereo not drawn)					Thermal stability compared to perfluoropolyether Z-DOL or Z-TETRAOL [1]: high
CCCCCCCCCCCCCCCCCCN1CCCN2CCCN=C12.O=S1(=O)NS(=O)(=O)C(F)(F)C(F)(F)C1(F)F					Thermal stability compared to perfluoropolyether Z-DOL or Z-TETRAOL [1]: high
CCCCCCCCCCCCCCCCCCN1CCCC1.O=S1(=O)NS(=O)(=O)C(F)(F)C(F)(F)C1(F)F					Thermal stability compared to perfluoropolyether Z-DOL or Z-TETRAOL [1]: high
CCCCCCCCCCCCCCCCCC[N+]1=C2CCCCCN2CCC1.O=S(=O)([O-])C(F)(F)F	319.2 °C	346.6 °C	389.0 °C		5%, 10%, 20% weight reduction temperatures (thermal stability) higher than perfluoropolyether Z-DOL (Comparative Example 11C) by [1]: ≥ 140 °C; 5%, 10%, 20% weight reduction temperatures (thermal stability) higher than Z-TETRAOL (Comparative Example 12C) by [1]: ≥ 80 °C
CCCCCCCCCCCCCCCCCCC1CCCCN2CCCN=C12.O=S1(=O)NS(=O)(=O)C(F)(F)C(F)(F)C1(F)F (stereo not drawn) [Comp. Ex. 1A, hexafluorocyclopropane-1,3-bis(sulfonyl)imide-6-octadecyl-1,8-diazabicyclo[5.4.0]-7-undecenium, reference compound]	346.3 °C	384.1 °C	414.0 °C	less than 0.1% by mass	
CCCCCCCCCCCCCCCCCCN1CCCN2CCCN=C12.O=S1(=O)NS(=O)(=O)C(F)(F)C(F)(F)C1(F)F [Comp. Ex. 4A, hexafluorocyclopropane-1,3-bis(sulfonyl)imide-7-octadecyl-1,5,7-triazabicyclo[4.4.0]-5-decenium, reference compound]	288.4 °C	376.2 °C	412.1 °C	less than 0.1% by mass	Dissolved or not in fluorine-based solvent [2]: not dissolved
CCCCCCCCCCCCCCCCCCN1CCCC1.O=S1(=O)NS(=O)(=O)C(F)(F)C(F)(F)C1(F)F [Comp. Ex. 6A, hexafluorocyclopropane-1,3-bis(sulfonyl)imide-N-octadecylpyrrolidinium, reference compound]	336.4 °C	358.4 °C	379.4 °C	less than 0.1% by mass	
CCCCCCCCCCCCCCCCCCn1cc[n+](CCCCC[n+]2ccn(CCCCCCCCCCCCCCCCCC)c2)c1.O=S(=O)([N-]S(=O)(=O)C(F)(F)C(F)(F)C(F)(F)C(F)(F)F)C(F)(F)C(F)(F)C(F)(F)C(F)(F)F.O=S(=O)([N-]S(=O)(=O)C(F)(F)C(F)(F)C(F)(F)C(F)(F)F)C(F)(F)C(F)(F)C(F)(F)C(F)(F)F [Comp. Ex. 9A, 1,5-bis[bis(nonafluorobutanesulfonyl)imide-1-octadecylimidazolium]pentane, reference compound]				less than 0.1% by mass	
CCCCCCCCCCCCCCCCCC[N+]1=C2CCCCCN2CCC1.O=S(=O)([O-])C(F)(F)F [Ex. 7A, trifluoromethanesulfonic acid-8-octadecyl-1,8-diazabicyclo[5.4.0]-7-undecenium]				0.5% by mass or greater	Solubility to fluorine-based solvent ([2]; listed as Example 7A): ≥ 0.5 % by mass
CCCCCCCCCCCCCCCCCC[n+]1ccn(CCC(F)(F)C(F)(F)C(F)(F)C(F)(F)C(F)(F)C(F)(F)C(F)(F)C(F)(F)F)c1.O=S(=O)([N-]S(=O)(=O)C(F)(F)C(F)(F)C(F)(F)C(F)(F)F)C(F)(F)C(F)(F)C(F)(F)C(F)(F)F [Ex. 8A, bis(nonafluorobutanesulfonyl)imide-1-1′H,1′H,2′H,2′H-heptadecafluorodecyl-3-octadecylimidazolium]	335.8 °C	358.5 °C	377.7 °C		
CCCCCCCCCCCCCCCCCCn1cc[n+](CCC[n+]2ccn(CCCCCCCCCCCCCCCCCC)c2)c1.O=S(=O)([N-]S(=O)(=O)C(F)(F)C(F)(F)C(F)(F)C(F)(F)F)C(F)(F)C(F)(F)C(F)(F)C(F)(F)F.O=S(=O)([N-]S(=O)(=O)C(F)(F)C(F)(F)C(F)(F)C(F)(F)F)C(F)(F)C(F)(F)C(F)(F)C(F)(F)F [Ex. 11A]				0.5% by mass or greater	
heptadecafluorooctanesulfonic acid-6-octadecyl-1,8-diazabicyclo[5.4.0]-7-undecenium	361.9 °C	382.7 °C	403.5 °C		Thermal stability compared to perfluoropolyether Z-DOL or Z-TETRAOL [1]: high
heptadecafluorooctanesulfonic acid-6-octadecyl-1,8-diazabicyclo[5.4.0]-7-undecenium [Comp. Ex. 2A, reference compound]				less than 0.1% by mass	
heptadecafluorooctanesulfonic acid-7-octadecyl-1,5,7-triazabicyclo[4.4.0]-5-decenium	356.1 °C	380.4 °C	401.5 °C		Thermal stability compared to perfluoropolyether Z-DOL or Z-TETRAOL [1]: high
heptadecafluorooctanesulfonic acid-7-octadecyl-1,5,7-triazabicyclo[4.4.0]-5-decenium [Comp. Ex. 5A, reference compound]				less than 0.1% by mass	Dissolved or not in fluorine-based solvent [2]: not dissolved
nonafluorobutanesulfonic acid-N-octadecylpyrrolidinium	339.4 °C	359.0 °C	377.3 °C		Thermal stability improved compared with perfluoropolyether Z-DOL or Z-TETRAOL by [1]: ≥ 95 °C
nonafluorobutanesulfonic acid-N-octadecylpyrrolidinium [Ex. 6A]					Dissolved or not in fluorine-based solvent [2]: could be dissolved
tris(trifluoromethanesulfonyl)methide-6-octadecyl-1,8-diazabicyclo[5.4.0]-7-undecenium	354.9 °C	385.0 °C	404.3 °C		Thermal stability compared to perfluoropolyether Z-DOL or Z-TETRAOL [1]: high
tris(trifluoromethanesulfonyl)methide-6-octadecyl-1,8-diazabicyclo[5.4.0]-7-undecenium [Comp. Ex. 3A, reference compound]				less than 0.1% by mass	Dissolved or not in fluorine-based solvent [2]: not dissolved

Reference: patent US20180237713A1, “Ionic Liquid, Lubricant, and Magnetic Recording Medium” (priority 2015, published 2018)
